Activity calls are given as the source filed them. The calls are words filed in the database; no cut-off is given here.
How the values were obtained:
[1] = target: T1, Kinesin-like protein KIF7 (Homo sapiens) (UniProt Q2M1P5); experiment: Inhibition of MT-stimulated Kif7 ATPase activity
T1 sequence (whole entry): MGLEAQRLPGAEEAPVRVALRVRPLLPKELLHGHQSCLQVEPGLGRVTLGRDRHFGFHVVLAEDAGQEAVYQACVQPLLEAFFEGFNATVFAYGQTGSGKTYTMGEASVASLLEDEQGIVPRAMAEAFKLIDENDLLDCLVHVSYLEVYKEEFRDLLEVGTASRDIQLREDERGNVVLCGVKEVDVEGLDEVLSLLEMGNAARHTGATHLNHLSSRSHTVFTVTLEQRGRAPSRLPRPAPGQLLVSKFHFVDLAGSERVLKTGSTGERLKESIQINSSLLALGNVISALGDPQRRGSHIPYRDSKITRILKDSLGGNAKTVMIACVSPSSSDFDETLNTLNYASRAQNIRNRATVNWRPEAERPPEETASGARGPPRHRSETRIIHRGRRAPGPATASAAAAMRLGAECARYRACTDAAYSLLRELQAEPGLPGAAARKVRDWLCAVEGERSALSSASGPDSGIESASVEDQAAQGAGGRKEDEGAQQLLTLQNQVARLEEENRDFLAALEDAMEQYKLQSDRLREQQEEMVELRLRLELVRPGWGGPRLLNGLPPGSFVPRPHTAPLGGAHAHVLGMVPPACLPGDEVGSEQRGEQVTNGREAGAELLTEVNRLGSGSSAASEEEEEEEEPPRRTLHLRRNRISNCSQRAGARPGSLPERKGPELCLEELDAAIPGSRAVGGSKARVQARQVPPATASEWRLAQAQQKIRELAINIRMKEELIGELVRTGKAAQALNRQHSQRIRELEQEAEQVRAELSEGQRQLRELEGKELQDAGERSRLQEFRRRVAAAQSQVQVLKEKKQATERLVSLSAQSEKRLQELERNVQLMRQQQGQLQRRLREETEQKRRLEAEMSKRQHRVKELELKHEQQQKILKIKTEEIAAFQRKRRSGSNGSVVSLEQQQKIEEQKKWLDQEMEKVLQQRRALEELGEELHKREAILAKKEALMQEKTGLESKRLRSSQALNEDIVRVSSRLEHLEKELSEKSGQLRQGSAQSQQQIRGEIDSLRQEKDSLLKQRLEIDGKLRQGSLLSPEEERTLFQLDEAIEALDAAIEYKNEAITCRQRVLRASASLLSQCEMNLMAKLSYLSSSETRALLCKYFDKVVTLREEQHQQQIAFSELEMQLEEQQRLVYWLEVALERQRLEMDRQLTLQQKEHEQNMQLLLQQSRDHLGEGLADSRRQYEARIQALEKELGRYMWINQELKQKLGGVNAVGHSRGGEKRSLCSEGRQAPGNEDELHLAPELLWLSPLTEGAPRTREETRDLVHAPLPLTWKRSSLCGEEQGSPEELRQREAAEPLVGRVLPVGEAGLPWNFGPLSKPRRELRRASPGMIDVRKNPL

[2] = target: T2, Kinesin-like protein KIF20A (Homo sapiens) (UniProt O95235); experiment: Inhibition of MT-stimulated MKLP2 ATPase activity
T2 sequence (whole entry): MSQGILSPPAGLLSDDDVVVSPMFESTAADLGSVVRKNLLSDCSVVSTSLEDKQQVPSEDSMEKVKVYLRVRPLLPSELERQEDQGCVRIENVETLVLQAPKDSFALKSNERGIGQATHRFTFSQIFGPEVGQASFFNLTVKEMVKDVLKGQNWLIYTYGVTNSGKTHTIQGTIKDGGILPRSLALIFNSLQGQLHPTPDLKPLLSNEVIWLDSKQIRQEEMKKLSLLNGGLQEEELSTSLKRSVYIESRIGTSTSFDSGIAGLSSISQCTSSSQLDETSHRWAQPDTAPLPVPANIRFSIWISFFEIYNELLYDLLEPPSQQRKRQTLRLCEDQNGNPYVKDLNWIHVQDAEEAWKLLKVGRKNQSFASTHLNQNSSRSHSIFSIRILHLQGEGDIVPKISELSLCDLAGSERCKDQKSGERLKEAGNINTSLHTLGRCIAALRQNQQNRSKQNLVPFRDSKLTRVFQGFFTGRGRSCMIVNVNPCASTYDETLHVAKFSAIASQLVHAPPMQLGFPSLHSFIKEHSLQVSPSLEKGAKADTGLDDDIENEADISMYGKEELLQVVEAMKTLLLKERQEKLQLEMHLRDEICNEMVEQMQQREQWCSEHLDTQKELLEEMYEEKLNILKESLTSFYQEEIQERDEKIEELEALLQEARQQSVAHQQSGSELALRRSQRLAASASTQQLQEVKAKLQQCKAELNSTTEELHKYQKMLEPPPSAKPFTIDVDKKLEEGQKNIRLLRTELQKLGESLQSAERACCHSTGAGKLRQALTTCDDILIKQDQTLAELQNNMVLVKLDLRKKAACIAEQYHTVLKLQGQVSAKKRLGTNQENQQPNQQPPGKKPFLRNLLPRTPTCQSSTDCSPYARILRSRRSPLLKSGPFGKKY

[3] = Antiproliferative activity against human hTERT-HME1 cells after 72 hrs by Alamar blue assay; type: cell-based
[4] = test system: NCI-H1299; experiment: Antiproliferative activity against human NCI-H1299 cells after 72 hrs by Alamar blue assay; type: functional; details: NCI-H1299, 72 h
[5] = Turbidimetric solubility of the compound at pH 7.4; type: physicochemical; details: buffer
[6] = Antitumor activity against human LXFS 538 cells xenografted in nu/nu nude Charles river mouse assessed as inhibition of tumor growth dosed at 20 mg/kg on days 0, 2 and 4 and 15 mg/kg on days 17, 19, 24 measured after 10 days; type: functional

Cc1cccc(C(CCC(N)C(=O)O)(c2ccccc2)c2ccccc2)c1 (racemic)
inhibition [1]: inactive | inhibition [2]: inactive | GI50 at 72 h [3]: 38 nM | GI50 [4]: 137 nM | solubility kinetic [5]: > 100 µM | T/C [6]: 26.3%
